{"source": "patent US20250066358A1", "about": "“Inhibitors of Menin-MLL Interaction” (Bala Therapeutics, Inc., priority 2021, published 2025)", "key": {"MV4-11": {"test_system": "MV4-11", "assay": "MV4-11 Cellular Growth Inhibition Assay (CellTiter-Glo)", "assay_type": "cell-based", "settings": "Homo sapiens, 168 h, MV4-11 cells, 7 days of incubation", "experimental": "(§1) HEK293 (Institute of Cytology Russian Academy of Science), MV4-11 (ATCC, CRL-9591), MOLM-13 (AcceGen, ABC-TC517S) were seeded at a density of 500 cells per well (HEK293) and 2000 cells per well (MV4-11, MOLM-13) in a 384-well clear bottom plate (Greiner Cat #781090) in 45 μl total volume of DMEM (PanEco, Cat #C420, Russia) or RPMI (PanEco, Cat #C330, Russia) with 10% FBS(HyClone Cat #SV30160.03). HEK293 were allowed to adhere overnight at 37° C., 5% CO2. 500× compounds solutions in DMSO (Sigma Cat #D2650) were prepared into Cmpnds plate (Diamond Well Plate, Axigen, Cat #P-384-120 SQ-C—S) and DMSO only control was included. 1 μl of 500× compounds (Cmpnds plate) was added to 49 μl of culture medium into Dilution plate (Diamond Well Plate, Axigen, Cat #P-384-120 SQ-C—S), mixed and then 5 μl of 10× compounds solutions were transferred to cells followed by centrifugation at 100 g for 1 min. Final DMSO concentration was 0.2%. After 3 days of incubation, 10 μl of 1× compounds were added to cells. After 7 days of incubation, 12 μl of CellTiter-Glo (Promega, CAT #G7572) were added to the cells, plate was centrifuged at 100 g for 1 min and luminescence signal was measured using Microplate Reader (CLARIOStar)."}, "[1]": {"assay": "HEK293 Cellular Growth Inhibition Assay (CellTiter-Glo)", "assay_type": "cell-based", "settings": "human, HEK293 cells, 7 days of incubation", "experimental": "as §1"}, "[2]": {"biological_target": "T1, recombinant MEN1 protein and fluorescein-labeled MLL4-43 peptide (Homo sapiens, UniProt O00255)", "T1 construct": "purchased Creativebiomart MEN1-35H", "T1 sequence (O00255 1-610)": "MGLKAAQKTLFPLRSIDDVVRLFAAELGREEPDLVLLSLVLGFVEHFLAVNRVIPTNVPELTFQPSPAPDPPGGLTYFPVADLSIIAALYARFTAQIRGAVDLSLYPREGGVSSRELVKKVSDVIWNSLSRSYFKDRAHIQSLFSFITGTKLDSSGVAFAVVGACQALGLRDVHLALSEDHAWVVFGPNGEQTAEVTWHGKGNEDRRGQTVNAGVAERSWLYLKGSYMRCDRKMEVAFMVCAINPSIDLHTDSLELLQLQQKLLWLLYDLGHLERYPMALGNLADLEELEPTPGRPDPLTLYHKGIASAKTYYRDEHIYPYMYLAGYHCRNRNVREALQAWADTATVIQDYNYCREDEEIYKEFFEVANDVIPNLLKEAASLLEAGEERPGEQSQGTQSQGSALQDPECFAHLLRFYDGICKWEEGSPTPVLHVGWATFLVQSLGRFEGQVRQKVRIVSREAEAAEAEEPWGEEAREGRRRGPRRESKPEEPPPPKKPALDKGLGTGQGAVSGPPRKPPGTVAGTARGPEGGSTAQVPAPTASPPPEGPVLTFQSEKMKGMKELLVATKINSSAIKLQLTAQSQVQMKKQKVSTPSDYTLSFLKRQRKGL", "assay": "Primary fluorescence polarization assay of MEN1 / MLL4-43 interaction inhibition", "assay_type": "binding", "settings": "MEN1 10 nM, MLL4-43 0.5 nM, 1 hour at room temperature", "experimental": "Compound activity was determined using recombinant MEN1 protein (Creativebiomart, Cat #MEN1-35H) and a custom fluorescein-labeled MLL4-43 peptide (Eton Bioscience Inc.). Interaction between MEN1 and MLL4-43 in the presence of compounds was determined by fluorescence polarization assay using a Microplate Reader ClarioStar Plus. The reaction was carried out in assay buffer (50 mM TRIS-HCl PH 7.4-7.6, 50 mM NaCl, 1 mM DTT, 0.1 mg/ml BSA). The compounds were dispensed on a 384 well Diamond Well Plate (Axigen, Cat #P-384-120 SQ-C—S) using the Biomek FX liquid handling system at 100× solutions of compounds in DMSO. 2× MEN1 mix (final concentration of MEN1 10 nM) was prepared in Assay buffer and 10 μl of mixture per well was added into 384w white Reaction plate with NBS(Corning, Cat #4513). 10 μl of Assay buffer w/o MENI was used for negative control. Plates were centrifuged for 1 min at 100 g. Next step the Compounds were added to Reaction plate using Biomek station via following steps: 3 μl of 100× compounds (in DMSO) were mixed thoroughly with 27 μl Assay Buffer, then 2 μl of this mixture was added to Reaction plate with 10 μl of MENI mix. Plates were centrifuged for 1 min at 100 g and incubated for 20 min at room temperature. Next 8 μL of MLL4-43 peptide per well was added to final concentration of MLL 0.5 nM. Plates were incubated for 1 hour at room temperature. Then fluorescence polarization was measured using Microplate Reader."}, "MOLM-13": {"test_system": "MOLM-13", "assay": "MOLM-13 Cellular Growth Inhibition Assay (CellTiter-Glo)", "assay_type": "cell-based", "settings": "Homo sapiens, 168 h, MOLM-13 cells, 7 days of incubation", "experimental": "as §1"}}, "data": [{"smiles": "FC(F)(F)Cc1ccc2ncnc(N3CC4(CCN(Cc5ccc6cc[nH]c6c5)CC4)C3)c2c1", "note": "[Compound 89, 4-(7-((1H-indol-6-yl)methyl)-2,7-diazaspiro[3.5]nonan-2-yl)-6-(2,2,2-trifluoroethyl)quinazoline]", "values": [{"measurement": "CC50", "setting": "MV4-11", "result": "≤ 1", "unit": "µM"}, {"measurement": "CC50 at 7 days", "setting": "[1]", "result": "≤ 5", "unit": "µM"}, {"measurement": "EC50", "setting": "[2]", "result": "≤ 0.075", "unit": "µM"}, {"measurement": "CC50", "setting": "MOLM-13", "result": "1 to 5", "unit": "µM"}]}, {"smiles": "CCS(=O)(=O)N[C@H]1CC[C@H](CN2CCC3(CC2)CN(c2ncnc4ccc(CCc5cccnc5)cc24)C3)CC1", "note": "[Compound 56, N-((1R,4R)-4-((2-(6-(2-(pyridin-3-yl)ethyl)quinazolin-4-yl)-2,7-diazaspiro[3.5]nonan-7-yl)methyl)cyclohexyl)ethanesulfonamide]", "values": [{"measurement": "CC50", "setting": "MV4-11", "result": "5 to 10", "unit": "µM"}, {"measurement": "CC50 at 7 days", "setting": "[1]", "result": "15 to 30", "unit": "µM"}, {"measurement": "EC50", "setting": "[2]", "result": "0.5 to 1", "unit": "µM"}, {"measurement": "CC50", "setting": "MOLM-13", "result": "5 to 10", "unit": "µM"}]}, {"smiles": "FC(F)(F)Cc1ccc2ncnc(N3CC4(CCN(Cc5cccc6[nH]ccc56)CC4)C3)c2c1", "note": "[Compound 83, 4-(7-((1H-indol-4-yl)methyl)-2,7-diazaspiro[3.5]nonan-2-yl)-6-(2,2,2-trifluoroethyl)quinazoline]", "values": [{"measurement": "CC50", "setting": "MV4-11", "result": "1 to 2.5", "unit": "µM"}, {"measurement": "CC50 at 7 days", "setting": "[1]", "result": "5 to 15", "unit": "µM"}, {"measurement": "EC50", "setting": "[2]", "result": "≤ 0.075", "unit": "µM"}, {"measurement": "CC50", "setting": "MOLM-13", "result": "5 to 10", "unit": "µM"}]}, {"smiles": "CCNS(=O)(=O)c1ccc(CN2CC3(CCN(c4ncnc5ccc(CC(F)(F)F)cc45)CC3)C2)cc1", "note": "[Compound 45, N-ethyl-4-((7-(6-(2,2,2-trifluoroethyl)quinazolin-4-yl)-2,7-diazaspiro[3.5]nonan-2-yl)methyl)benzenesulfonamide]", "values": [{"measurement": "CC50", "setting": "MV4-11", "result": "5 to 10", "unit": "µM"}, {"measurement": "CC50 at 7 days", "setting": "[1]", "result": "15 to 30", "unit": "µM"}, {"measurement": "EC50", "setting": "[2]", "result": "1 to 5", "unit": "µM"}, {"measurement": "CC50", "setting": "MOLM-13", "result": "5 to 10", "unit": "µM"}]}, {"smiles": "CCS(=O)(=O)N[C@H]1CC[C@H](CN2CCC3(CC2)CN(c2ncnc4ccc(CC(F)(F)F)cc24)C3)CC1", "note": "[Compound 5, N-((1R,4R)-4-((2-(6-(2,2,2-trifluoroethyl)quinazolin-4-yl)-2,7-diazaspiro[3.5]nonan-7-yl)methyl)cyclohexyl)ethanesulfonamide]", "values": [{"measurement": "CC50", "setting": "MV4-11", "result": "≤ 1", "unit": "µM"}, {"measurement": "CC50 at 7 days", "setting": "[1]", "result": "5 to 15", "unit": "µM"}, {"measurement": "EC50", "setting": "[2]", "result": "≤ 0.075", "unit": "µM"}, {"measurement": "CC50", "setting": "MOLM-13", "result": "1 to 5", "unit": "µM"}]}, {"smiles": "O=C1COc2cc(CN3CCC4(CC3)CN(c3ncnc5ccc(CC(F)(F)F)cc35)C4)ccc2N1", "note": "[Compound 75, 7-((2-(6-(2,2,2-trifluoroethyl)quinazolin-4-yl)-2,7-diazaspiro[3.5]nonan-7-yl)methyl)-2H-benzo[b][1,4]oxazin-3(4H)-one]", "values": [{"measurement": "CC50", "setting": "MV4-11", "result": "2.5 to 5", "unit": "µM"}, {"measurement": "CC50 at 7 days", "setting": "[1]", "result": "15 to 30", "unit": "µM"}, {"measurement": "EC50", "setting": "[2]", "result": "0.075 to 0.5", "unit": "µM"}, {"measurement": "CC50", "setting": "MOLM-13", "result": "1 to 5", "unit": "µM"}]}, {"smiles": "CCS(=O)(=O)Nc1ccc(CN2CCC3(CC2)CN(c2ncnc4ccc(CC(F)(F)F)cc24)C3)cc1", "note": "[Compound 7, N-(4-((2-(6-(2,2,2-trifluoroethyl)quinazolin-4-yl)-2,7-diazaspiro[3.5]nonan-7-yl)methyl)phenyl)ethanesulfonamide]", "values": [{"measurement": "CC50", "setting": "MV4-11", "result": "1 to 2.5", "unit": "µM"}, {"measurement": "CC50 at 7 days", "setting": "[1]", "result": "5 to 15", "unit": "µM"}, {"measurement": "EC50", "setting": "[2]", "result": "≤ 0.075", "unit": "µM"}, {"measurement": "CC50", "setting": "MOLM-13", "result": "1 to 5", "unit": "µM"}]}, {"smiles": "CCS(=O)(=O)Nc1ccc(CN2CCC3(CC2)CN(c2ncnc4ccc(CCc5ccncc5)cc24)C3)cc1", "note": "[Compound 49, N-(4-((2-(6-(2-(pyridin-4-yl)ethyl)quinazolin-4-yl)-2,7-diazaspiro[3.5]nonan-7-yl)methyl)phenyl)ethanesulfonamide]", "values": [{"measurement": "CC50", "setting": "MV4-11", "result": "5 to 10", "unit": "µM"}, {"measurement": "CC50 at 7 days", "setting": "[1]", "result": "30 to 50", "unit": "µM"}, {"measurement": "EC50", "setting": "[2]", "result": "1 to 5", "unit": "µM"}, {"measurement": "CC50", "setting": "MOLM-13", "result": "10 to 20", "unit": "µM"}]}]}
